How the values were obtained:
Test in all cases: relative viability (nuclei count vs DMSO), 5 days (fraction); higher = more cells survive
[1] = compound: Cc1ccc2nc(NCCN)c3ncc(C)n3c2c1 + Cc1nc(Nc2ncc(C(=O)Nc3c(C)cccc3Cl)s2)cc(N2CCN(CCO)CC2)n1 [Dasatinib] (partner 0.075 µM)
Method in brief: (§1)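 Lung cancer cell lines in 1536-well plates got either a single drug or a fixed anchor-drug dose together with five library-drug doses (not always all listed) in √10 steps, by pin tool, on the day after seeding. Nuclei were counted after 5 days, and relative viability is the treated-to-vehicle ratio of nuclei counts. Values are medians of duplicate plates.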

Salubrinal + Crizotinib = compound: O=C(/C=C/c1ccccc1)NC(NC(=S)Nc1cccc2cccnc12)C(Cl)(Cl)Cl [Salubrinal] + C[C@@H](Oc1cc(-c2cnn(C3CCNCC3)c2)cnc1N)c1c(Cl)ccc(F)c1Cl [Crizotinib] (partner 1 µM)
Method in brief: as §1

Salubrinal + Olaparib = compound: O=C(/C=C/c1ccccc1)NC(NC(=S)Nc1cccc2cccnc12)C(Cl)(Cl)Cl [Salubrinal] + O=C(c1cc(Cc2n[nH]c(=O)c3ccccc23)ccc1F)N1CCN(C(=O)C2CC2)CC1 [Olaparib] (partner 8 µM)
Method in brief: as §1

[2] = compound: Cc1ccc2nc(NCCN)c3ncc(C)n3c2c1 + CS(=O)(=O)CCNCc1ccc(-c2ccc3ncnc(Nc4ccc(OCc5cccc(F)c5)c(Cl)c4)c3c2)o1 [Lapatinib] (partner 2 µM)
Method in brief: as §1

| Cell Line | relative viability ([1]; first compound 0.04 µM) | relative viability ([1]; first compound 0.1265 µM) | relative viability ([1]; first compound 0.4 µM) | relative viability ([1]; first compound 1.265 µM) | relative viability ([1]; first compound 4 µM) | relative viability (Salubrinal + Crizotinib; first compound 0.08 µM) | relative viability (Salubrinal + Crizotinib; first compound 0.253 µM) | relative viability (Salubrinal + Crizotinib; first compound 0.8 µM) | relative viability (Salubrinal + Crizotinib; first compound 2.53 µM) | relative viability (Salubrinal + Crizotinib; first compound 8 µM) | relative viability (Salubrinal + Olaparib; first compound 0.08 µM) | relative viability (Salubrinal + Olaparib; first compound 0.253 µM) | relative viability (Salubrinal + Olaparib; first compound 0.8 µM) | relative viability (Salubrinal + Olaparib; first compound 2.53 µM) | relative viability (Salubrinal + Olaparib; first compound 8 µM) | relative viability ([2]; first compound 0.04 µM) | relative viability ([2]; first compound 0.1265 µM) | relative viability ([2]; first compound 0.4 µM) | relative viability ([2]; first compound 1.265 µM) | relative viability ([2]; first compound 4 µM) |
| --- | --- | --- | --- | --- | --- | --- | --- | --- | --- | --- | --- | --- | --- | --- | --- | --- | --- | --- | --- | --- |
| NCI-H2087 | 0.893 | 0.85 | 0.767 | 0.87 | 0.791 | 0.984 | 0.758 | 0.913 | 0.867 | 0.865 | 0.476 | 0.493 | 0.784 | 0.508 | 0.584 | 1.25 | 1.14 | 1.16 | 1.08 | 1.07 |
| HCC-366 | 0.561 | 0.685 | 0.672 | 0.579 | 0.629 | 0.798 | 0.437 | 0.777 | 0.393 | 0.55 | 0.459 |  | 0.401 | 0.341 | 0.357 | 1.14 | 0.91 | 1.11 | 1.07 | 0.998 |
| NCI-H727 | 0.4 |  | 0.338 | 0.321 | 0.365 | 0.943 | 0.559 | 1.03 | 0.999 | 0.84 | 0.804 | 0.581 | 0.815 | 0.699 | 0.662 | 1.22 | 0.887 | 1.19 | 0.766 | 0.762 |
| LU99A | 0.58 | 0.605 | 0.622 | 0.54 | 0.544 | 0.588 | 0.635 | 0.657 | 0.528 | 0.5 | 0.286 | 0.29 | 0.265 | 0.24 | 0.222 | 1 | 0.944 | 1.06 | 0.957 | 0.986 |
| NCI-H647 | 0.172 | 0.191 | 0.163 | 0.169 | 0.141 | 1.44 | 0.891 | 1 | 1.12 | 0.905 | 0.72 | 0.372 | 0.685 | 0.63 | 0.453 | 1.08 | 1.02 | 0.948 | 1.13 | 0.707 |
| HCC-78 | 0.425 | 0.496 | 0.364 | 0.354 | 0.303 | 0.363 | 0.325 | 0.398 | 0.308 | 0.302 | 1 | 0.964 | 1 | 0.788 | 0.9 | 1.03 | 0.738 | 0.775 | 0.861 | 0.697 |
| NCI-H1755 | 0.475 | 0.423 | 0.445 | 0.359 | 0.393 | 0.991 | 0.738 | 1 | 0.874 | 0.917 | 1.01 | 0.937 | 0.922 | 0.857 | 0.893 | 1.1 | 1.03 | 0.934 | 1.1 | 1.04 |
| NCI-H3122 | 0.78 | 0.901 | 0.707 | 1.02 | 0.869 | 0.285 | 0.277 | 0.255 | 0.295 | 0.276 | 0.762 | 1.23 | 0.566 | 0.664 | 0.683 | 1.06 | 0.994 | 0.997 | 1.12 | 1 |
| NCI-H358 | 0.177 | 0.157 | 0.182 | 0.154 | 0.22 | 0.559 | 0.553 | 0.506 | 0.51 | 0.478 | 0.817 | 0.434 | 0.724 | 0.558 | 0.523 | 0.549 | 0.486 | 0.434 | 0.508 | 0.511 |
| PC-14 | 0.285 | 0.276 | 0.299 | 0.206 | 0.0944 | 0.927 | 0.853 | 0.935 | 0.885 | 0.914 | 0.278 | 0.258 | 0.259 | 0.246 | 0.25 | 0.398 | 0.307 | 0.41 | 0.289 | 0.295 |
| SK-MES-1 | 0.489 | 0.339 | 0.392 | 0.35 | 0.305 | 1.05 | 1 | 1 | 1.02 | 0.908 | 0.769 | 0.694 | 0.845 | 0.605 | 0.598 | 0.503 | 0.512 | 0.493 | 0.447 | 0.472 |
| NCI-H2347 | 0.32 | 0.333 | 0.355 | 0.266 | 0.317 | 0.709 | 0.709 | 0.772 | 0.76 | 0.719 | 0.595 | 0.657 | 0.609 | 0.613 | 0.584 | 0.99 | 0.99 | 0.908 | 0.987 | 0.87 |
| NCI-H2228 | 0.496 | 0.456 | 0.455 | 0.505 | 0.377 | 0.496 | 0.446 | 0.632 | 0.353 | 0.362 | 0.691 |  | 0.969 | 0.555 | 0.385 | 1.07 | 1.3 | 0.884 | 1.15 | 1.04 |
| EKVX | 0.523 | 0.548 | 0.466 | 0.37 | 0.46 | 1.16 | 0.811 | 0.971 | 0.974 | 1.07 | 0.986 | 0.816 | 0.884 | 0.852 | 0.815 | 0.232 | 0.197 | 0.216 | 0.283 | 0.213 |
| HOP-62 | 0.772 | 0.626 | 0.644 | 0.634 | 0.649 | 1.04 | 0.965 | 1.21 | 0.914 | 0.26 | 0.318 | 1.34 | 0.943 | 0.456 | 0.386 | 1.13 | 0.845 | 0.688 | 0.81 | 1.02 |
| NCI-H2126 | 0.663 | 0.696 | 0.592 | 0.549 | 0.493 | 1.14 | 0.961 | 1.12 | 1.01 | 1.03 | 1.01 | 0.754 | 0.941 | 0.88 | 0.951 | 0.793 | 0.783 | 0.765 | 0.791 | 0.593 |
